Among the data in ChEMBL document CHEMBL1125685, “Benzyloxazolidine-2,4-diones as potent hypoglycemic agents” (1991) are Glucose normalisation values, retold here.

What all share (assay type): functional
Experiment [1] concerns Mus musculus. Kind of experiment: Percentage glucose normalization relative to the ciglitazone effect at 50 mg/kg, which lower blood glucose levels to that of the lean littermates at the dose 5 mg/kg (in mice).
For experiment [2], the system named is Mus musculus. The experiment can be described thus: Percentage glucose normalization relative to the ciglitazone effect at 50 mg/kg, which lower blood glucose levels to that of the lean littermates at the dose 25 mg/kg (in mice).
In experiment [3] the test system is Mus musculus. Kind of experiment: Percentage glucose normalization relative to the ciglitazone effect at 50 mg/kg, which lower blood glucose levels to that of the lean littermates at the dose 0.1 mg/kg (in mice).
The subject of experiment [4] is Mus musculus. Kind of experiment: Percentage glucose normalization relative to the ciglitazone effect at 50 mg/kg, which lower blood glucose levels to that of the lean littermates at the dose 0.2 mg/kg (in mice).
In experiment [5] the test system is Mus musculus. The experiment can be described thus: Percentage glucose normalization relative to the ciglitazone effect at 50 mg/kg, which lower blood glucose levels to that of the lean littermates at the dose 1 mg/kg (in mice).
The subject of experiment [6] is Mus musculus. Kind of experiment: Percentage glucose normalization relative to the ciglitazone effect at 50 mg/kg, which lower blood glucose levels to that of the lean littermates at the dose 10 mg/kg (in mice).
Experiment [7] has as its system Mus musculus. The experiment can be described thus: Percentage glucose normalization relative to the ciglitazone effect at 50 mg/kg, which lower blood glucose levels to that of the lean littermates at the dose 0.5 mg/kg (in mice).
Experiment [8] has as its system Mus musculus. The experiment can be described thus: Percentage glucose normalization relative to the ciglitazone effect at 50 mg/kg, which lower blood glucose levels to that of the lean littermates at the dose 0.025 mg/kg (in mice).
The test system of experiment [9] is Mus musculus. Kind of experiment: Percentage glucose normalization relative to the ciglitazone effect at 50 mg/kg, which lower blood glucose levels to that of the lean littermates at the dose 0.05 mg/kg (in mice).

The structures appear in SMILES notation.

Consider `Cc1oc(-c2ccccc2)nc1COc1ccc(CC2OC(=O)NC2=O)cc1` (stereo unspecified), for which the Glucose normalisation with Mus musculus [1] was 60%.
`O=C1NC(=O)C(Cc2ccc(Oc3ccc4oc(-c5ccccc5)nc4c3)cc2)O1` (stereo unspecified) yielded a Glucose normalisation with Mus musculus [2] of 0%.
As for `Cc1oc(-c2ccc3ccccc3c2)nc1Cc1cc2cc(CC3OC(=O)NC3=O)ccc2o1` (stereo unspecified), the values for the Glucose normalisation in the experiment with Mus musculus [3], with Mus musculus [4] and in the experiment with Mus musculus [5] were 76%, 70% and 75%, respectively.
Turning to `O=C1NC(=O)C(Cc2ccc(OCCc3oc(-c4ccccc4)nc3Cc3ccccc3)cc2)O1` (stereo unspecified), the Glucose normalisation in the experiment on Mus musculus [6] amounted to 40%.
In the case of `Cc1oc(-c2cc(C(F)(F)F)cc(C(F)(F)F)c2)nc1CCOc1ccc(CC2OC(=O)NC2=O)cc1` (stereo unspecified), the Glucose normalisation was 14% with Mus musculus [4] and 95% with Mus musculus [7].
`Cc1oc(C2CCCCC2)nc1Cc1cc2cc(CC3OC(=O)NC3=O)ccc2o1` (stereo unspecified): the Glucose normalisation in the experiment on Mus musculus [3] came out at 64%; in the experiment with Mus musculus [4], 91%.
As for `Cc1cccc(-c2nc(Cc3cc4cc(CC5OC(=O)NC5=O)ccc4o3)c(C)o2)c1` (stereo unspecified), the Glucose normalisation with Mus musculus [3] came to 90%; in the experiment with Mus musculus [7], 100%.
For `Cc1oc(-c2ccc3ccccc3c2)nc1CCOc1ccc(CC2OC(=O)NC2=O)cc1` (stereo unspecified), the Glucose normalisation with Mus musculus [4] stood at 46%; in the experiment on Mus musculus [7], 100%; in the experiment on Mus musculus [5], 98%.
For the compound `Cc1sc(-c2ccc3ccccc3c2)nc1CCOc1ccc(CC2OC(=O)NC2=O)cc1` (stereo unspecified), the Glucose normalisation in the experiment on Mus musculus [7] came to 0%.
With `Cc1ccc(-c2nc(Cc3cc4cc(CC5OC(=O)NC5=O)ccc4o3)c(C)o2)cc1` (stereo unspecified), the Glucose normalisation in the experiment with Mus musculus [3] was found to be 40%; with Mus musculus [4], 100%.
With `COc1ccc(-c2nc(CCOc3ccc(CC4OC(=O)NC4=O)cc3)c(C)o2)cc1` (stereo unspecified), the Glucose normalisation was 53% in the experiment on Mus musculus [7] and 80% with Mus musculus [5].
In the case of `Cc1oc(-c2ccccc2)nc1Cc1cc2cc(CC3OC(=O)NC3=O)ccc2o1` (stereo unspecified), the Glucose normalisation with Mus musculus [8] turned out to be 65%; with Mus musculus [9] it was 77%; in the experiment with Mus musculus [3] it was 92%; with Mus musculus [4], 100%; in the experiment on Mus musculus [1], 100%.
For `Cc1oc(-c2ccco2)nc1CCOc1ccc(CC2OC(=O)NC2=O)cc1` (stereo unspecified), the results for the Glucose normalisation in the experiment on Mus musculus [5] and in the experiment with Mus musculus [1] were 14% and 24%, respectively.
With `Cc1oc(-c2ccccc2)nc1CCOc1ccc(CC2OC(=O)NC2=O)cc1` (stereo unspecified), the values for the Glucose normalisation in the experiment with Mus musculus [7] and in the experiment on Mus musculus [5] were 28% and 100%, respectively.
In turn, `Cc1oc(-c2ccccc2)nc1CCOc1ccc(C2OC(=O)NC2=O)cc1` (stereo unspecified) returned a Glucose normalisation in the experiment on Mus musculus [5] of 0%.
As to `Cc1oc(-c2ccccc2)nc1CCC(=O)c1ccc(CC2OC(=O)NC2=O)cc1` (stereo unspecified), the Glucose normalisation with Mus musculus [5] came out at 13%; in the experiment on Mus musculus [1], 75%.
In the experiment with Mus musculus [7], `Cc1sc(-c2ccccc2)nc1Cc1cc2cc(CC3OC(=O)NC3=O)ccc2o1` (stereo unspecified) showed a Glucose normalisation of 0%.
For the compound `Cc1nc(-c2ccc3ccccc3c2)oc1CCOc1ccc(CC2OC(=O)NC2=O)cc1` (stereo unspecified), the Glucose normalisation in the experiment with Mus musculus [5] is 0%; with Mus musculus [1], 10%.
As to `Cc1oc(C2CCCCC2)nc1CCOc1ccc(CC2OC(=O)NC2=O)cc1` (stereo unspecified), in the experiment with Mus musculus [5], the Glucose normalisation stood at 61%.
